Experimental data reported in US20070027130A1, “Tricyclic 6-alkylidene-penem beta-lactamase inhibitors and beta-lactam antibiotic combination: a broad spectrum antibiotic” (priority 2005, published 2007).
≈ marks a conversion by molar mass, not a printed value. Where two headings read alike, the source gives them in different places.

Legend:
Experiment in all cases: MIC microbroth dilution
Type in all cases: cell-based
[1] = tested on: S. marcescens GC 4145 Inducible AmpC; conditions: Serratia marcescens, β-lactamase class C, MHBII, 35° C. 18 hr, read-out: Minimal Inhibitory Concentration
Description: (§1) The in vitro activities of the antibiotics were determined by the microbroth dilution method as recommended by the National Committee for Clinical Laboratory Standards (NCCLS). (NCCLS. 2000. Methods for Dilution Antimicrobial Susceptibility Tests for Bacteria That Grow Aerobically; Approved Standards: M7-A5, vol. 19. National Committee for Clinical Laboratory Standards, Villanova, Pa.). Mueller-Hinton II broth (MHBII) (BBL Cockeysville, Md.), was used for the testing procedure. […]. The plates were incubated for 18-22 hours at 35 C. in ambient air.

[2] = tested on: A. baumannii GC 7687 AmpC; conditions: Acinetobacter baumannii, GC7687AMPC, β-lactamase class C, MHBII, 35° C. 18 hr, read-out: Minimal Inhibitory Concentration
Description: as §1

[3] = tested on: K. pneumoniae GC 7821 DHA 1; conditions: Klebsiella pneumoniae, GC7821DHA1, β-lactamase class C, MHBII, 35° C. 18 hr, read-out: Minimal Inhibitory Concentration
Description: as §1

[4] = tested on: K. pneumoniae GC 2826 Act 1 + 3 additional; conditions: Klebsiella pneumoniae, β-lactamase class A, A (ESBL), C, MHBII, 35° C. 18 hr, read-out: Minimal Inhibitory Concentration
Description: as §1

[5] = tested on: E. cloacae GC 6991 (AmpC); conditions: Enterobacter cloacae, β-lactamase class C, MHBII, 35° C. 18 hr, read-out: Minimal Inhibitory Concentration
Description: as §1

[6] = tested on: A. baumannii GC 7684 AmpC, AmpC; conditions: Acinetobacter baumannii, β-lactamase class C, MHBII, 35° C. 18 hr, read-out: Minimal Inhibitory Concentration
Description: as §1

[7] = tested on: E. cloacae GC 4142 (AmpC); conditions: Enterobacter cloacae
Description: as §1

[8] = tested on: K. pn GC 6651 (TEM-1 + SHV-1 + SHV-5); conditions: Klebsiella pneumoniae, β-lactamase class A, A (ESBL), MHBII, 35° C. 18 hr, read-out: Minimal Inhibitory Concentration
Description: as §1

[9] = tested on: E. coli GC 2400 (TEM-43); conditions: Escherichia coli, β-lactamase class A (ESBL), MHBII, 35° C. 18 hr, read-out: Minimal Inhibitory Concentration
Description: as §1

[10] = tested on: E. coli GC 2300 (TEM-28); conditions: Escherichia coli, β-lactamase class A (ESBL), MHBII, 35° C. 18 hr, read-out: Minimal Inhibitory Concentration
Description: as §1

[11] = tested on: E. coli GC 2844 (none); conditions: Escherichia coli, β-lactamase class none, MHBII, 35° C. 18 hr, read-out: Minimal Inhibitory Concentration
Description: as §1

[12] = tested on: E. coli GC 6368 (SHV-7); conditions: Escherichia coli, β-lactamase class A (ESBL), MHBII, 35° C. 18 hr, read-out: Minimal Inhibitory Concentration
Description: as §1

[13] = tested on: E. coli GC 1695 (TEM-1 + TEM-10); conditions: Escherichia coli, β-lactamase class A, A (ESBL), MHBII, 35° C. 18 hr, read-out: Minimal Inhibitory Concentration
Description: as §1

[14] = tested on: P. aeruginosa ATCC 27853 AmpC-inducable; conditions: Pseudomonas aeruginosa, ATCC27853, β-lactamase class C, MHBII, 35° C. 18 hr, read-out: Minimal Inhibitory Concentration
Description: as §1

[15] = tested on: K. pn GC 6488 (TEM-1 + SHV-5 + SHV-7); conditions: Klebsiella pneumoniae, β-lactamase class A, A (ESBL), MHBII, 35° C. 18 hr, read-out: Minimal Inhibitory Concentration
Description: as §1

[16] = tested on: P. aeruginosa PT 9587 PTZ-R; conditions: Pseudomonas aeruginosa, PT9587PTZR; P. aeruginosa PT 9587, piperacillin-tazobactam-resistant; MHBII, 35° C. 18 hr; read-out: Minimal Inhibitory Concentration
Description: as §1

[17] = tested on: K. pneumoniae GC 7823 Fox 5; conditions: Klebsiella pneumoniae, GC7823FOX5, β-lactamase class C, MHBII, 35° C. 18 hr, read-out: Minimal Inhibitory Concentration
Description: as §1

[18] = tested on: K. pneumoniae GC 7635 SHV-1, KPC2; conditions: Klebsiella pneumoniae, β-lactamase class A, A (Cb'ase), MHBII, 35° C. 18 hr, read-out: Minimal Inhibitory Concentration
Description: as §1

[19] = tested on: E. coli GC 2146 (TEM-1; SHV-7); conditions: Escherichia coli, β-lactamase class A, A (ESBL), MHBII, 35° C. 18 hr, read-out: Minimal Inhibitory Concentration
Description: as §1

[20] = tested on: S. typhimurium GC 4198 SHV-1 CTX-M-5; conditions: Salmonella enterica, 18 h, read-out: Minimal Inhibitory Concentration
Description: as §1

[21] = tested on: K. pneumoniae GC 7820 Act 1; conditions: Klebsiella pneumoniae, GC7820ACT1, β-lactamase class C, MHBII, 35° C. 18 hr, read-out: Minimal Inhibitory Concentration
Description: as §1

[22] = tested on: E. cloacae GC 7065 TEM-26, SHV-12 Amp C inducable; conditions: Enterobacter cloacae, β-lactamase class A (ESBL), MHBII, 35° C. 18 hr, read-out: Minimal Inhibitory Concentration
Description: as §1

[23] = tested on: K. pn GC 1507 (TEM-9 + SHV-1); conditions: Klebsiella pneumoniae, β-lactamase class A, A (ESBL), MHBII, 35° C. 18 hr, read-out: Minimal Inhibitory Concentration
Description: as §1

[24] = tested on: E. aerogenes GC 7036 TEM-24, Amp C inducable; conditions: Klebsiella aerogenes, β-lactamase class A (ESBL), MHBII, 35° C. 18 hr, read-out: Minimal Inhibitory Concentration
Description: as §1

## CO/N=C(\C(=O)N[C@@H]1C(=O)N2C(C(=O)[O-])=C(C[N+]3(C)CCCC3)CS[C@H]12)c1csc(N)n1 [Cefepime]
[1]
  MIC: 1 µg/mL (≈ 2.08 µM)
[2]
  MIC: 16 µg/mL (≈ 33.3 µM)
[3]
  MIC: 0.06 µg/mL (≈ 0.125 µM)
[4]
  MIC: 8 µg/mL (≈ 16.6 µM)
[5]
  MIC: 0.5 µg/mL (≈ 1.04 µM)
[6]
  MIC: 16 µg/mL (≈ 33.3 µM)
[7]; E. cloacae GC 4142, β-lactamase class C, MHBII, 35° C. 18 hr, read-out: Minimal Inhibitory Concentration
  MIC: 8 µg/mL (≈ 16.6 µM)
[7]; Table 3, E. cloacae GC4142 AmpC, read-out: MIC* (minimum inhibitory concentration)
  MIC: 16 µg/mL (≈ 33.3 µM)
[8]
  MIC: 2 µg/mL (≈ 4.16 µM)
[9]
  MIC: > 16 µg/mL
[10]
  MIC: > 16 µg/mL
[11]
  MIC: 0.06 µg/mL (≈ 0.125 µM)
[12]
  MIC: 2 µg/mL (≈ 4.16 µM)
[13]
  MIC: 16 µg/mL (≈ 33.3 µM)
[14]
  MIC: 2 µg/mL (≈ 4.16 µM)
[15]
  MIC: 8 µg/mL (≈ 16.6 µM)
[16]
  MIC: 4 µg/mL
[17]
  MIC: 1 µg/mL (≈ 2.08 µM)
[18]
  MIC: > 16 µg/mL
[19]
  MIC: > 16 µg/mL
[20]
  MIC: > 16 µg/mL
[21]
  MIC: 0.5 µg/mL (≈ 1.04 µM)
[22]
  MIC: 16 µg/mL (≈ 33.3 µM)
[23]
  MIC: 8 µg/mL (≈ 16.6 µM)
[24]
  MIC: 2 µg/mL (≈ 4.16 µM)
